Reference: PMC5635798, “Alteration to Dopaminergic Synapses Following Exposure to Perfluorooctane Sulfonate (PFOS), in Vitro and in Vivo” (Medical Sciences, 2016)

Target: T1, vesicular monoamine transporter 2 (VMAT2) (Homo sapiens, UniProt Q05940)
T1 construct: gene SLC18A2; human VMAT2 stably expressed in HEK293 cells (HEK-hVMAT2), pcDNA3.1
Experiment: inhibition of vesicular 3H-dopamine uptake in HEK-hVMAT2 cell fractions
Assay type: biochemical

T1 sequence (Q05940 whole entry): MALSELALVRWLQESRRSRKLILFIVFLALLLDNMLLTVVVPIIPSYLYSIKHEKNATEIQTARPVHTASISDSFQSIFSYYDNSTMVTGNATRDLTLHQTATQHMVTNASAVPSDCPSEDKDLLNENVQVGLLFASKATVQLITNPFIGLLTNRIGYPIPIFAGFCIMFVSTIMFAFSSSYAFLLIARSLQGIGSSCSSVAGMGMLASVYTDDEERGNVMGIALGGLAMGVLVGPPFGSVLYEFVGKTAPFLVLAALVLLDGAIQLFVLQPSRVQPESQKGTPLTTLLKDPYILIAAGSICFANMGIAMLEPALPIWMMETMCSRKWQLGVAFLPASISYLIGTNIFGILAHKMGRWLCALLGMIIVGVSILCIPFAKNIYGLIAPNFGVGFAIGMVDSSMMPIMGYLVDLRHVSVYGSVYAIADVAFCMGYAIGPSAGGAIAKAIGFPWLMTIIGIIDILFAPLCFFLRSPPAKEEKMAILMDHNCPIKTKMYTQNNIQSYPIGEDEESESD

O=S(=O)(O)C(F)(F)C(F)(F)C(F)(F)C(F)(F)C(F)(F)C(F)(F)C(F)(F)C(F)(F)F [PFOS]
IC50: 4.56 µM
